Measured values taken from patent publication US20220323406A1, “METHODS AND COMPOSITIONS FOR DIFFERENTIATING STEM CELLS” (Massachusetts Institute of Technology, priority 2019, published 2022).
Where a name gives a salt, the structure may show the parent alone.

Tests used:
[1] = tested on: ENR+CD organoids (ISC to Paneth cell differentiation); assay: Primary screen: basal (non-stimulated) lysozyme secretion LYZ.NS, 2.5-D 384-well ENR+CD organoid differentiation; type: cell-based, mouse
Description: (§1) High-throughput screening.

[2] = tested on: ENR+CD organoids (ISC to Paneth cell differentiation); assay: Primary screen: CCh-stimulated lysozyme secretion LYZ.S, 2.5-D 384-well ENR+CD organoid differentiation; type: cell-based, mouse; conditions: primary screen
Description: as §1

ENR+CD organoids = assay: Primary screen: ATP (CellTiter-Glo 3D, CTG) cell number/viability, 2.5-D 384-well ENR+CD organoids; conditions: primary screen; for Z.CTG: standard z score;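 on all read-outs here: compounds given at plating and again on day 3 over a 6-day differentiation from ENR+CV stem-cell-enriched precursors, ATP measured on day 6, plate median as control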
[3] = primary screen, dose 0.08 uM, standard z score
[4] = primary screen, dose 0.40 uM, standard z score
[5] = primary screen, dose 2.00 uM, standard z score
[6] = primary screen, dose 10.00 uM, standard z score
[7] = primary screen; dose 0.08 uM; FC vs plate median
[8] = primary screen; dose 0.40 uM; FC vs plate median
[9] = primary screen; dose 2.00 uM; FC vs plate median
[10] = primary screen; dose 10.00 uM; FC vs plate median
[11] = dose 0.08 uM, FC vs plate median
[12] = dose 0.40 uM, FC vs plate median
[13] = dose 2.00 uM, FC vs plate median
[14] = dose 10.00 uM, FC vs plate median
[15] = primary screen, standard z score, dose 0.08 uM
[16] = primary screen, standard z score, dose 0.40 uM
[17] = primary screen, standard z score, dose 2.00 uM
[18] = primary screen, standard z score, dose 10.00 uM

SMILES: O=C(NOC[C@H](O)CO)c1ccc(F)c(F)c1Nc1ccc(I)cc1F [PD0325901]
- Z.LYZ.NS [1, 3]: −1.046
- Z.LYZ.NS [1, 4]: −1.064
- Z.LYZ.NS [1, 5]: −1.215
- Z.LYZ.NS [1, 6]: −1.625
- Dose.FC.LYZ.NS [1, 7]: −0.120 log2 fold change
- Dose.FC.LYZ.NS [1, 8]: −0.122 log2 fold change
- Dose.FC.LYZ.NS [1, 9]: −0.139 log2 fold change
- Dose.FC.LYZ.NS [1, 10]: −0.187 log2 fold change
- Dose.FC.LYZ.S [2, 11]: −0.212 log2 fold change
- Dose.FC.LYZ.S [2, 12]: −0.219 log2 fold change
- Dose.FC.LYZ.S [2, 13]: −0.227 log2 fold change
- Dose.FC.LYZ.S [2, 14]: −0.269 log2 fold change
- Dose.FC.CTG (ENR+CD organoids; [11]): −0.502 log2 fold change
- Dose.FC.CTG (ENR+CD organoids; [12]): −1.155 log2 fold change
- Dose.FC.CTG (ENR+CD organoids; [13]): −0.867 log2 fold change
- Dose.FC.CTG (ENR+CD organoids; [14]): −0.963 log2 fold change

SMILES: c1ccc(CNc2nc(NCc3ccccc3)c3ccccc3n2)cc1 [DBeQ]
- Dose.FC.LYZ.NS ([1]; primary screen, dose 0.08 uM): 0.097 log2 fold change
- Dose.FC.LYZ.NS ([1]; primary screen, dose 0.40 uM): 0.064 log2 fold change
- Dose.FC.LYZ.NS ([1]; primary screen, dose 2.00 uM): −0.048 log2 fold change
- Dose.FC.LYZ.NS ([1]; primary screen, dose 10.00 uM): −0.296 log2 fold change
- Z.LYZ.NS [1, 15]: 0.844
- Z.LYZ.NS [1, 16]: 0.558
- Z.LYZ.NS [1, 17]: −0.414
- Z.LYZ.NS [1, 18]: −2.577
- Dose.FC.LYZ.S ([2]; dose 0.08 uM): 0.045 log2 fold change
- Dose.FC.LYZ.S ([2]; dose 0.40 uM): 0.210 log2 fold change
- Dose.FC.LYZ.S ([2]; dose 2.00 uM): −0.103 log2 fold change
- Dose.FC.LYZ.S ([2]; dose 10.00 uM): −0.423 log2 fold change
- Dose.FC.CTG (ENR+CD organoids; dose 0.08 uM): 0.119 log2 fold change
- Dose.FC.CTG (ENR+CD organoids; dose 0.40 uM): −0.013 log2 fold change
- Dose.FC.CTG (ENR+CD organoids; dose 2.00 uM): 0.004 log2 fold change
- Dose.FC.CTG (ENR+CD organoids; dose 10.00 uM): −1.133 log2 fold change
- Z.CTG (ENR+CD organoids; dose 0.08 uM): 0.285
- Z.CTG (ENR+CD organoids; dose 0.40 uM): −0.031
- Z.CTG (ENR+CD organoids; dose 2.00 uM): 0.010
- Z.CTG (ENR+CD organoids; dose 10.00 uM): −2.706

SMILES: CC(C)(C)Cn1c(N)nc2ccc(-c3[nH]c(C(C)(C)C)nc3-c3ccc(F)cc3)nc21 [LY2228820]
- Dose.FC.LYZ.NS (log2 fold change) ([1]; primary screen, dose 0.08 uM): 0.065
- Z.LYZ.NS (standard z score) ([1]; primary screen, dose 0.08 uM): 0.569
- Dose.FC.LYZ.NS (log2 fold change) ([1]; primary screen, dose 0.40 uM): −0.100
- Z.LYZ.NS (standard z score) ([1]; primary screen, dose 0.40 uM): −0.874
- Dose.FC.LYZ.NS (log2 fold change) ([1]; primary screen, dose 2.00 uM): 0.043
- Z.LYZ.NS (standard z score) ([1]; primary screen, dose 2.00 uM): 0.377
- Dose.FC.LYZ.NS (log2 fold change) ([1]; primary screen, dose 10.00 uM): −0.126
- Z.LYZ.NS (standard z score) ([1]; primary screen, dose 10.00 uM): −1.099
- Dose.FC.LYZ.S (log2 fold change) ([2]; dose 0.08 uM): −0.017
- Dose.FC.LYZ.S (log2 fold change) ([2]; dose 0.40 uM): −0.054
- Dose.FC.LYZ.S (log2 fold change) ([2]; dose 2.00 uM): −0.130
- Dose.FC.LYZ.S (log2 fold change) ([2]; dose 10.00 uM): −0.164
- Dose.FC.CTG (log2 fold change) (ENR+CD organoids; dose 0.08 uM): −0.299
- Z.CTG (standard z score) (ENR+CD organoids; dose 0.08 uM): −0.715
- Dose.FC.CTG (log2 fold change) (ENR+CD organoids; dose 0.40 uM): −0.340
- Z.CTG (standard z score) (ENR+CD organoids; dose 0.40 uM): −0.812
- Dose.FC.CTG (log2 fold change) (ENR+CD organoids; dose 2.00 uM): −0.339
- Z.CTG (standard z score) (ENR+CD organoids; dose 2.00 uM): −0.810
- Dose.FC.CTG (log2 fold change) (ENR+CD organoids; dose 10.00 uM): −0.332
- Z.CTG (standard z score) (ENR+CD organoids; dose 10.00 uM): −0.793

SMILES: Cc1nc(C(=O)NCC(=O)O)c(O)c2ccc(Oc3ccccc3)cc12 [FG-4592]
- Dose.FC.LYZ.NS ([1]; primary screen, dose 0.08 uM): 0.077 log2 fold change
- Dose.FC.LYZ.NS ([1]; primary screen, dose 0.40 uM): 0.170 log2 fold change
- Dose.FC.LYZ.NS ([1]; primary screen, dose 2.00 uM): 0.094 log2 fold change
- Dose.FC.LYZ.NS ([1]; primary screen, dose 10.00 uM): 0.030 log2 fold change
- Z.LYZ.NS [1, 15]: 0.673
- Z.LYZ.NS [1, 16]: 1.484
- Z.LYZ.NS [1, 17]: 0.822
- Z.LYZ.NS [1, 18]: 0.265
- Dose.FC.LYZ.S ([2]; dose 0.08 uM): 0.083 log2 fold change
- Dose.FC.LYZ.S ([2]; dose 0.40 uM): 0.234 log2 fold change
- Dose.FC.LYZ.S ([2]; dose 2.00 uM): 0.152 log2 fold change
- Dose.FC.LYZ.S ([2]; dose 10.00 uM): 0.071 log2 fold change
- Dose.FC.CTG (ENR+CD organoids; dose 0.08 uM): 0.327 log2 fold change
- Dose.FC.CTG (ENR+CD organoids; dose 0.40 uM): 0.284 log2 fold change
- Dose.FC.CTG (ENR+CD organoids; dose 2.00 uM): 0.290 log2 fold change
- Dose.FC.CTG (ENR+CD organoids; dose 10.00 uM): 0.238 log2 fold change

SMILES: O=C1CC[C@@]2(O)[C@H]3Cc4ccc(O)c5c4[C@@]2(CCN3CC2CC2)[C@H]1O5 [Naltrexone HCl]
- Z.LYZ.NS [1, 3]: −0.067
- Z.LYZ.NS [1, 4]: −0.043
- Z.LYZ.NS [1, 5]: 0.166
- Z.LYZ.NS [1, 6]: 0.302
- Dose.FC.LYZ.NS [1, 7]: −0.008 log2 fold change
- Dose.FC.LYZ.NS [1, 8]: −0.005 log2 fold change
- Dose.FC.LYZ.NS [1, 9]: 0.019 log2 fold change
- Dose.FC.LYZ.NS [1, 10]: 0.035 log2 fold change
- Dose.FC.LYZ.S [2, 11]: 0.002 log2 fold change
- Dose.FC.LYZ.S [2, 12]: 0.025 log2 fold change
- Dose.FC.LYZ.S [2, 13]: 0.025 log2 fold change
- Dose.FC.LYZ.S [2, 14]: 0.045 log2 fold change
- Dose.FC.CTG (ENR+CD organoids; [11]): 0.089 log2 fold change
- Dose.FC.CTG (ENR+CD organoids; [12]): 0.070 log2 fold change
- Dose.FC.CTG (ENR+CD organoids; [13]): 0.004 log2 fold change

SMILES: COc1cc(-n2c(=S)[nH]c3ccccc3c2=O)c(Cl)cc1Cl [Mdivi-1]
- Dose.FC.LYZ.NS (log2 fold change) ([1]; primary screen, dose 0.08 uM): 0.177
- Z.LYZ.NS (standard z score) ([1]; primary screen, dose 0.08 uM): 1.537
- Dose.FC.LYZ.NS (log2 fold change) ([1]; primary screen, dose 0.40 uM): 0.156
- Z.LYZ.NS (standard z score) ([1]; primary screen, dose 0.40 uM): 1.358
- Dose.FC.LYZ.NS (log2 fold change) ([1]; primary screen, dose 2.00 uM): −0.022
- Z.LYZ.NS (standard z score) ([1]; primary screen, dose 2.00 uM): −0.194
- Dose.FC.LYZ.NS (log2 fold change) ([1]; primary screen, dose 10.00 uM): −0.268
- Z.LYZ.NS (standard z score) ([1]; primary screen, dose 10.00 uM): −2.333
- Dose.FC.LYZ.S (log2 fold change) ([2]; dose 0.08 uM): 0.079
- Dose.FC.LYZ.S (log2 fold change) ([2]; dose 0.40 uM): 0.030
- Dose.FC.LYZ.S (log2 fold change) ([2]; dose 2.00 uM): −0.048
- Dose.FC.LYZ.S (log2 fold change) ([2]; dose 10.00 uM): −0.411
- Dose.FC.CTG (log2 fold change) (ENR+CD organoids; dose 0.08 uM): 0.008
- Z.CTG (standard z score) (ENR+CD organoids; dose 0.08 uM): 0.019
- Dose.FC.CTG (log2 fold change) (ENR+CD organoids; dose 0.40 uM): −0.031
- Z.CTG (standard z score) (ENR+CD organoids; dose 0.40 uM): −0.074
- Dose.FC.CTG (log2 fold change) (ENR+CD organoids; dose 2.00 uM): −0.112
- Z.CTG (standard z score) (ENR+CD organoids; dose 2.00 uM): −0.267
- Dose.FC.CTG (log2 fold change) (ENR+CD organoids; dose 10.00 uM): −0.527
- Z.CTG (standard z score) (ENR+CD organoids; dose 10.00 uM): −1.259
